From patent publication US20070049564A1 (Wyeth, priority 2005, published 2007)
In brackets after ≈: the same amount, converted by molar mass. Read-outs that look alike come from different tables or passages of the source.

Legend:
[1] = system: S. typhimurium GC 2172; test: MIC, broth microdilution; settings: Salmonella enterica, TYPHIMURIUM
[2] = system: E. coli; test: Range of MIC for E. coli strains; settings: Escherichia coli
[3] = system: Staph.; test: Range of MIC for Staph. strains, including MRSA; settings: Staphylococcus aureus, MRSA
[4] = system: E. coli GC 2203; test: MIC, broth microdilution; settings: Escherichia coli
[5] = system: E. faecalis GC 4555; test: MIC, broth microdilution; settings: Enterococcus faecalis
[6] = system: E. coli GC 6465; test: MIC, broth microdilution; settings: Escherichia coli
[7] = system: S. aureus GC 4536; test: MIC, broth microdilution; settings: Staphylococcus aureus
[8] = system: S. pneumoniae* GC 4465; test: MIC, broth microdilution; settings: Streptococcus pneumoniae
[9] = system: E. coli GC 2272; test: MIC, broth microdilution; settings: Escherichia coli
Experimental: (§1) Antimicrobial susceptibility testing. The in vitro activities of the antibiotics are determined by the broth microdilution method as recommended by the National Committee for Clinical Laboratory Standards (NCCLS) (1). Mueller-Hinton II broth (MHBII)(BBL Cockeysville, Md.) is the medium employed in the testing procedures. Microtiter plates containing serial dilutions of each antimicrobial agent are inoculated with each organism to yield the appropriate density (10^5 CFU/ml) in a 100 μl final volume. The plates are incubated for 18-22 hours at 35° C. in ambient air.
(§2) Representative compounds were first incubated in mouse serum for an hour prior to the in vitro testing against a panel of selected gram-positive and gram-negative bacteria strains. All compounds were also pre-incubated in water for an hour prior to testing as control. Representative compounds of Formula I were incubated in human serum prior to MIC determination.

[10] = system: S. aureus GC 6467; test: MIC, broth microdilution; settings: Staphylococcus aureus
[11] = system: S. aureus GC 6466; test: MIC, broth microdilution; settings: Staphylococcus aureus
[12] = system: E. coli GC 4560; test: MIC, broth microdilution; settings: Escherichia coli
[13] = system: S. aureus GC 6469; test: MIC, broth microdilution; settings: Staphylococcus aureus
[14] = system: E. coli GC 2232; test: MIC, broth microdilution; settings: Escherichia coli
[15] = system: E. faecalis GC 2265; test: MIC, broth microdilution; settings: Enterococcus faecalis
[16] = system: E. faecalis GC 2267; test: MIC, broth microdilution; settings: Enterococcus faecalis
[17] = system: E. coli GC 2231; test: MIC, broth microdilution; settings: Escherichia coli
[18] = system: E. faecium GC 2243; test: MIC, broth microdilution; settings: Enterococcus faecium
Experimental: as §1
Representative compounds were first incubated in mouse serum for an hour prior to the in vitro testing against a panel of selected gram-positive and gram-negative bacteria strains. All compounds were also pre-incubated in water for an hour prior to testing as control.

[19] = system: E. coli GC 3226; test: MIC, broth microdilution; settings: Escherichia coli
Experimental: as §1, §2

[20] = system: S. agalactiae GC 4564; test: MIC, broth microdilution; settings: Streptococcus agalactiae
[21] = read-out: MINIMAL INHIBITORY CONCENTRATION MIC, pre-incubated in Mouse Serum
[22] = read-out: MINIMAL INHIBITORY CONCENTRATION MIC, pre-incubated in Water

Work on `CCCN(CC(=O)Nc1cc(N(C)C)c2c(c1O)C(=O)C1=C(O)[C@]3(O)C(=O)C(C(N)=O)=C(O)[C@@H](N(C)C)[C@@H]3C[C@@H]1C2)C(=O)OCOC(=O)c1cc(C)cc(C)c1` [Example 26, ({[(2-{[(5aR,6aS,7S,10aS)-9-(aminocarbonyl)-4,7-bis(dimethylamino)-1,8,10a,11-tetrahydroxy-10,12-dioxo-5,5a,6,6a,7,10,10a,12-octahydrotetracen-2-yl]amino}-2-oxoethyl)(propyl)amino]carbonyl}oxy)methyl 3,5-dimethylbenzoate] yielded an MIC [1, 21] of 16 µg/mL (≈ 20.6 µM), an MIC [1, 22] greater than 64 µg/mL and an MIC ([2]; 20 h, read-out: Range of MIC, E. coli (Mouse Serum)) of 1 to 4 µg/mL (≈ 1.29 to 5.14 µM). The MIC ([2]; read-out: Range of MIC, E. coli (mouse serum)) was 1 to 4 µg/mL (≈ 1.29 to 5.14 µM), the MIC ([3]; read-out: Range of MIC, Staph (Mouse Serum)) was 0.25 to 1 µg/mL (≈ 0.321 to 1.29 µM) and the MIC ([3]; read-out: Range of MIC, Staph (Water)) was 0.25 to 4 µg/mL (≈ 0.321 to 5.14 µM). The MIC ([3]; read-out: Range of MIC, Staph. (mouse serum)) was 0.25 to 1 µg/mL (≈ 0.321 to 1.29 µM), the MIC ([3]; read-out: Range of MIC, Staph. (water)) was 0.25 to 4 µg/mL (≈ 0.321 to 5.14 µM) and the MIC ([4]; GC2203, read-out: MINIMAL INHIBITORY CONCENTRATION MIC, pre-incubated in Mouse Serum) was 1 µg/mL (≈ 1.29 µM). The MIC ([4]; GC2203, read-out: MINIMAL INHIBITORY CONCENTRATION MIC, pre-incubated in Water) was greater than 64 µg/mL, the MIC ([5]; GC4555, read-out: MINIMAL INHIBITORY CONCENTRATION MIC, pre-incubated in Mouse Serum) was 1 µg/mL (≈ 1.29 µM) and the MIC ([5]; GC4555, read-out: MINIMAL INHIBITORY CONCENTRATION MIC, pre-incubated in Water) was 4 µg/mL (≈ 5.14 µM). For the same molecule, the MIC ([6]; GC6465, read-out: MINIMAL INHIBITORY CONCENTRATION MIC, pre-incubated in Mouse Serum) was 8 µg/mL (≈ 10.3 µM), the MIC ([6]; GC6465, read-out: MINIMAL INHIBITORY CONCENTRATION MIC, pre-incubated in Water) was greater than 64 µg/mL and the MIC ([7]; GC4536, read-out: MINIMAL INHIBITORY CONCENTRATION MIC, pre-incubated in Mouse Serum) was 0.25 µg/mL (≈ 0.321 µM). For the same molecule, the MIC ([7]; GC4536, read-out: MINIMAL INHIBITORY CONCENTRATION MIC, pre-incubated in Water) was 0.5 µg/mL (≈ 0.643 µM), the MIC [8, 21] was 0.25 µg/mL (≈ 0.321 µM) and the MIC [8, 22] was 0.25 µg/mL (≈ 0.321 µM). For the same molecule, the MIC ([9]; GC2272, read-out: MINIMAL INHIBITORY CONCENTRATION MIC, pre-incubated in Mouse Serum) was 2 µg/mL (≈ 2.57 µM), the MIC ([9]; GC2272, read-out: MINIMAL INHIBITORY CONCENTRATION MIC, pre-incubated in Water) was 64 µg/mL (≈ 82.3 µM) and the MIC ([10]; GC6467, read-out: MINIMAL INHIBITORY CONCENTRATION MIC, pre-incubated in Mouse Serum) was 1 µg/mL (≈ 1.29 µM). The MIC ([10]; GC6467, read-out: MINIMAL INHIBITORY CONCENTRATION MIC, pre-incubated in Water) was 4 µg/mL (≈ 5.14 µM), the MIC ([11]; GC6466, read-out: MINIMAL INHIBITORY CONCENTRATION MIC, pre-incubated in Mouse Serum) was 0.25 µg/mL (≈ 0.321 µM) and the MIC ([11]; GC6466, read-out: MINIMAL INHIBITORY CONCENTRATION MIC, pre-incubated in Water) was 0.25 µg/mL (≈ 0.321 µM). For the same molecule, the MIC ([12]; GC4560, read-out: MINIMAL INHIBITORY CONCENTRATION MIC, pre-incubated in Mouse Serum) was 0.5 µg/mL (≈ 0.643 µM), the MIC ([12]; GC4560, read-out: MINIMAL INHIBITORY CONCENTRATION MIC, pre-incubated in Water) was 8 µg/mL (≈ 10.3 µM) and the MIC ([13]; GC6469, read-out: MINIMAL INHIBITORY CONCENTRATION MIC, pre-incubated in Mouse Serum) was 1 µg/mL (≈ 1.29 µM). It also gave an MIC ([13]; GC6469, read-out: MINIMAL INHIBITORY CONCENTRATION MIC, pre-incubated in Water) of 2 µg/mL (≈ 2.57 µM), an MIC ([14]; GC2232, read-out: MINIMAL INHIBITORY CONCENTRATION MIC, pre-incubated in Mouse Serum) of 1 µg/mL (≈ 1.29 µM) and an MIC ([14]; GC2232, read-out: MINIMAL INHIBITORY CONCENTRATION MIC, pre-incubated in Water) greater than 64 µg/mL. The MIC ([15]; GC2265, read-out: MINIMAL INHIBITORY CONCENTRATION MIC, pre-incubated in Mouse Serum) was 2 µg/mL (≈ 2.57 µM), the MIC ([15]; GC2265, read-out: MINIMAL INHIBITORY CONCENTRATION MIC, pre-incubated in Water) was 8 µg/mL (≈ 10.3 µM) and the MIC ([16]; GC2267, read-out: MINIMAL INHIBITORY CONCENTRATION MIC, pre-incubated in Mouse Serum) was 2 µg/mL (≈ 2.57 µM). For the same molecule, the MIC ([16]; GC2267, read-out: MINIMAL INHIBITORY CONCENTRATION MIC, pre-incubated in Water) was 4 µg/mL (≈ 5.14 µM), the MIC ([17]; GC2231, read-out: MINIMAL INHIBITORY CONCENTRATION MIC, pre-incubated in Mouse Serum) was 4 µg/mL (≈ 5.14 µM) and the MIC ([17]; GC2231, read-out: MINIMAL INHIBITORY CONCENTRATION MIC, pre-incubated in Water) was greater than 64 µg/mL. For the same molecule, the MIC ([18]; GC2243, read-out: MINIMAL INHIBITORY CONCENTRATION MIC, pre-incubated in Mouse Serum) was 1 µg/mL (≈ 1.29 µM), the MIC ([18]; GC2243, read-out: MINIMAL INHIBITORY CONCENTRATION MIC, pre-incubated in Water) was 2 µg/mL (≈ 2.57 µM) and the MIC ([19]; GC3226, read-out: MINIMAL INHIBITORY CONCENTRATION MIC, pre-incubated in Mouse Serum) was 2 µg/mL (≈ 2.57 µM). The MIC ([19]; GC3226, read-out: MINIMAL INHIBITORY CONCENTRATION MIC, pre-incubated in Water) was greater than 64 µg/mL, the MIC ([20]; GC4564, read-out: MINIMAL INHIBITORY CONCENTRATION MIC, pre-incubated in Mouse Serum) was 1 µg/mL (≈ 1.29 µM) and the MIC ([20]; GC4564, read-out: MINIMAL INHIBITORY CONCENTRATION MIC, pre-incubated in Water) was 2 µg/mL (≈ 2.57 µM).
